The values below are quoted from earlier work in paper PMC8348686, “The Pharmacological Profile of Second Generation Pyrovalerone Cathinones and Related Cathinone Derivative” (International Journal of Molecular Sciences, 2021).

One data set addresses T1, adrenergic α2A receptor (Homo sapiens, UniProt P08913).
T1 sequence (P08913 1-465): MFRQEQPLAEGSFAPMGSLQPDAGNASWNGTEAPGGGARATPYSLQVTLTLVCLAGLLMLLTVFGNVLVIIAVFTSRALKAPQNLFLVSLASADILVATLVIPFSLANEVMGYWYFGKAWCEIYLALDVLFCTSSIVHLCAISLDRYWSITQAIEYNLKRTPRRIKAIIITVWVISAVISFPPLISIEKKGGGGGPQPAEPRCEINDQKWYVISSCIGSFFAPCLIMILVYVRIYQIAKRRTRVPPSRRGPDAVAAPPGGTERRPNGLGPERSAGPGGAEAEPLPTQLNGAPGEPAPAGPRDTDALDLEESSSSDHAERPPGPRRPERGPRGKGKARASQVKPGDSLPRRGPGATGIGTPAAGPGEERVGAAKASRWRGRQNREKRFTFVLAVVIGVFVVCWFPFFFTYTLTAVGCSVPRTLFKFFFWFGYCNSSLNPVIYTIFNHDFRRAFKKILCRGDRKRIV
The note with it: read-out: α2A Receptor Binding Ki ± SD; [3H]-Rauwolscine; ref Simmler et al. (2013); cited from earlier work.

The target in a further data set is Mouse TAAR1. The note with it: [3H]-RO5166017; ref Simmler et al. (2013); read-out: Mouse TAAR1 Receptor Binding Ki ± SD; cited from earlier work.
A further data set addresses T2, h5-HT2B receptor (Homo sapiens, UniProt P41595).
T2 construct: expressed in transfected cells; host or cells: HEK293
Set-up: method as in Rickli et al. (2015). The note with it: read-out: h5-HT2B Activation Potency EC50 ± SD; ref Rickli et al. (2015); cited from earlier work.

The target of a further data set is T3, adrenergic α1A receptor (Homo sapiens, UniProt P35348).
T3 sequence (P35348 1-466): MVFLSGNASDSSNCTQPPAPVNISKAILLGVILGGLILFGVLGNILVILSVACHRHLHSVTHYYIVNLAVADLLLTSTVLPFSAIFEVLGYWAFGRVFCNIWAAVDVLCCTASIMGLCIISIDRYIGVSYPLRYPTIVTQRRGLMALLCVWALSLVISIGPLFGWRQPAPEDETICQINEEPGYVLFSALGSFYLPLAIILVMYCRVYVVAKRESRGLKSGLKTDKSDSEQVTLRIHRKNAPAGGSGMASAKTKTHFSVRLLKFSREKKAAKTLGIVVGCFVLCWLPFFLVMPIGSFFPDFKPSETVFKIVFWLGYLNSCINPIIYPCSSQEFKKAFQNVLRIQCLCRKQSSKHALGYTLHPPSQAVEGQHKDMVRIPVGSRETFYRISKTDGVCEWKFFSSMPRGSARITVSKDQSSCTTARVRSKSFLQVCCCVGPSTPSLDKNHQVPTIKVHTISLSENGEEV
The note with it: read-out: α1A Receptor Binding Ki ± SD; [3H]-Prazosin; ref Simmler et al. (2013); cited from earlier work.

In another data set the target is h5-HT2A receptor (Homo sapiens, UniProt P28223). The arrangement: expressed in transfected cells; host or cells: HEK293 cell preparations. The note with it: read-out: h5-HT2A Receptor Binding Ki ± SD; [3H]-Ketanserin; ref Simmler et al. (2013); cited from earlier work.
Sequence of h5-HT2A receptor (P28223 whole entry): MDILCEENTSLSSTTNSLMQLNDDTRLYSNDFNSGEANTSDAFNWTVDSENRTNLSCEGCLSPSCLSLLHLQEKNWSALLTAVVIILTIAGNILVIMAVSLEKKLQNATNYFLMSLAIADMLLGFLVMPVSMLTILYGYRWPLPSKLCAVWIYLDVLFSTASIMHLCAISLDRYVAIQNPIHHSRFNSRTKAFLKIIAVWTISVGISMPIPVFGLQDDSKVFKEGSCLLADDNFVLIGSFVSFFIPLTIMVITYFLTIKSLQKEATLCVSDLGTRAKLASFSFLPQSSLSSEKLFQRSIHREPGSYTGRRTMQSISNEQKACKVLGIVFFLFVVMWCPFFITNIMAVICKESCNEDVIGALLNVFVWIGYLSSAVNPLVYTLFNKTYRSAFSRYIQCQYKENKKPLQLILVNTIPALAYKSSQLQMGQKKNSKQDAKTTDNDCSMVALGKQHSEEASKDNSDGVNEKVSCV
For another data set, the target named is dopaminergic D2 receptor (Homo sapiens, UniProt P14416). The note with it: read-out: D2 Receptor Binding Ki ± SD; [3H]-Spiperone; ref Simmler et al. (2013); cited from earlier work.
Sequence of dopaminergic D2 receptor (P14416 whole entry): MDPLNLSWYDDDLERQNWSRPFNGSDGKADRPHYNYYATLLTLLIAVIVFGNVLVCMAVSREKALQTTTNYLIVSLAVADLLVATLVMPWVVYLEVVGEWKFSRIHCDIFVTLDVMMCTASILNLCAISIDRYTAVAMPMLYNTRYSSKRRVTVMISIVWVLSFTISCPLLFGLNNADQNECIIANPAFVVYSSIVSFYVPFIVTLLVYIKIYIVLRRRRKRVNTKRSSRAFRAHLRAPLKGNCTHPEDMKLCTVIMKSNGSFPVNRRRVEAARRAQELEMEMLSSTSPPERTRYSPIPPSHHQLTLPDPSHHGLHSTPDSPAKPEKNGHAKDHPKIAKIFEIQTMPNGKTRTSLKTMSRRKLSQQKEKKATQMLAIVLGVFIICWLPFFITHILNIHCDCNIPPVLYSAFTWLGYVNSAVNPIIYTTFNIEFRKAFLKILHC
A further data set addresses Rat TAAR1. The note with it: [3H]-RO5166017; ref Simmler et al. (2013); read-out: Rat TAAR1 Receptor Binding Ki ± SD; cited from earlier work.
In another data set the target is T4, h5-HT2C receptor (Homo sapiens, UniProt P28335).
T4 construct: expressed in transfected cells; host or cells: HEK293 cell preparations
T4 sequence (P28335 33-458): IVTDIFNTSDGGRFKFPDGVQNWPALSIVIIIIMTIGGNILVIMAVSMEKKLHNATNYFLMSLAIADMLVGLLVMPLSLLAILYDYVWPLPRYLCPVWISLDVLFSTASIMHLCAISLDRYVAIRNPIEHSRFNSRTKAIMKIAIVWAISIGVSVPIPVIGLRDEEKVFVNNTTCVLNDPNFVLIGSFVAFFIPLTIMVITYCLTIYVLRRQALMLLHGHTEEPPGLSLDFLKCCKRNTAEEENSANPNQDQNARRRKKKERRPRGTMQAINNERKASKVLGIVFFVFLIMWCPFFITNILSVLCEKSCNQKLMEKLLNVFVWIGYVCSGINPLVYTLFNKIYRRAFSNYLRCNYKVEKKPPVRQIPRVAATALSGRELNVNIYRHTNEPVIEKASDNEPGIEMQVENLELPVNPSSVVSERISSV
The note with it: read-out: h5-HT2C Receptor Binding Ki ± SD; [3H]-Mesulgerine; ref Simmler et al. (2013); cited from earlier work.

The next data set relates to Human TAAR1. The arrangement: method as in Simmler et al. (2016). The note with it: ref Simmler et al. (2016); read-out: Human TAAR1 Activation Potency EC50 ± SD; cited from earlier work.

SMILES strings stand for the structures.

T2 sequence (P41595 whole entry): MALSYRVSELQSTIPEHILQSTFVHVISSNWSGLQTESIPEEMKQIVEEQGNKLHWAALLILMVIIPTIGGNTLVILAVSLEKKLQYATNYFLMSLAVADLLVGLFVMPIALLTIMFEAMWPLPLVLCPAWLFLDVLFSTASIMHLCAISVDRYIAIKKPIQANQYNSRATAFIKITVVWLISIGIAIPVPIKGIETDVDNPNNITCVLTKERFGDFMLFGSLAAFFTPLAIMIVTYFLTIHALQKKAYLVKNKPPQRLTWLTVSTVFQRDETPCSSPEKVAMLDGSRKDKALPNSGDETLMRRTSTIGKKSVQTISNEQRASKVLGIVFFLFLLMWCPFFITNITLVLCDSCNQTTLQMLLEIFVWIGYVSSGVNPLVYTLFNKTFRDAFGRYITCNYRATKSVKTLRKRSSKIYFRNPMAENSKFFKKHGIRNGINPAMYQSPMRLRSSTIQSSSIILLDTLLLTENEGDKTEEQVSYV

What is called Ki is the equilibrium dissociation constant of an inhibitor or competing ligand from its target. For orientation: EC50 means the concentration that produces a half-maximal response. For `CC(N)Cc1ccccc1` (stereo not drawn) [Amphetamine, amphetamine, reference compound], the Ki was 2800 ± 800 nM at adrenergic α2A receptor; 90 ± 60 nM at Mouse TAAR1; above 6000 nM at adrenergic α1A receptor; above 13000 nM on h5-HT2A receptor; above 30000 nM on dopaminergic D2 receptor; 230 ± 180 nM at Rat TAAR1. At h5-HT2C receptor, the Ki was above 13000 nM. Besides, the EC50 at h5-HT2B receptor was 9400 ± 1600 nM; in the data set on Human TAAR1, 2800 ± 800 nM.
